Experimental data from ChEMBL document CHEMBL4184096 (Bioorg Med Chem Lett, 2018).

Columns and labels:
[1] = biological target: T1, KvLQT1/minK (Kv7.1/minK) potassium channel (Homo sapiens, UniProt P51787+Q8N4C8); experiment: Inhibition of human KvLQT1/minK channel expressed in CHO cells at 1 uM at holding potential of -80 mV by whole cell patch clamp assay relative to control; format: cell-based; details: CHO cells expressing human KvLQT1/minK channel
[2] = Protein binding to human plasma at 30 to 1000 ng/ml after 2 to 6 hrs by LC-MS/MS based rapid equilibrium dialysis method; format: ADME, cell-free; details: read-out: PPB (converted)
hERG (KCNH2) = hERG (KCNH2) (Homo sapiens, UniProt Q12809); experiment: Inhibition of human ERG expressed in HEK293 cells at 30 nM at holding potential of -80 mV by whole cell patch clamp assay relative to control; format: cell-based; details: HEK293 cells expressing human ERG
[3] = biological target: T1, KvLQT1/minK (Kv7.1/minK) potassium channel; experiment: Inhibition of human KvLQT1/minK channel expressed in CHO cells at 10 uM at holding potential of -80 mV by whole cell patch clamp assay relative to control; format: cell-based; details: CHO cells expressing human KvLQT1/minK channel
[4] = Fraction unbound in human plasma at 30 to 1000 ng/ml after 2 to 6 hrs by LC-MS/MS based rapid equilibrium dialysis method; format: ADME, cell-free
[5] = biological target: T2, Voltage-gated inwardly rectifying potassium channel KCNH2 (Homo sapiens, UniProt Q12809); experiment: Inhibition of human ERG expressed in HEK293 cells at holding potential of -80 mV by whole cell patch clamp assay; format: cell-based
[6] = Plasma concentration in human cardiac arrhythmia model; format: ADME, cell-free
[7] = biological target: Sodium channel protein type 5 subunit alpha (Homo sapiens, UniProt Q14524); experiment: Inhibition of human Nav1.5 channel expressed in HEK293 cells at holding potential of -70 mV by whole cell patch clamp assay; format: cell-based
[8] = biological target: T2, Voltage-gated inwardly rectifying potassium channel KCNH2; experiment: Inhibition of human ERG expressed in HEK293 cells by patch clamp assay; format: cell-based

T1 sequence (P51787 whole entry): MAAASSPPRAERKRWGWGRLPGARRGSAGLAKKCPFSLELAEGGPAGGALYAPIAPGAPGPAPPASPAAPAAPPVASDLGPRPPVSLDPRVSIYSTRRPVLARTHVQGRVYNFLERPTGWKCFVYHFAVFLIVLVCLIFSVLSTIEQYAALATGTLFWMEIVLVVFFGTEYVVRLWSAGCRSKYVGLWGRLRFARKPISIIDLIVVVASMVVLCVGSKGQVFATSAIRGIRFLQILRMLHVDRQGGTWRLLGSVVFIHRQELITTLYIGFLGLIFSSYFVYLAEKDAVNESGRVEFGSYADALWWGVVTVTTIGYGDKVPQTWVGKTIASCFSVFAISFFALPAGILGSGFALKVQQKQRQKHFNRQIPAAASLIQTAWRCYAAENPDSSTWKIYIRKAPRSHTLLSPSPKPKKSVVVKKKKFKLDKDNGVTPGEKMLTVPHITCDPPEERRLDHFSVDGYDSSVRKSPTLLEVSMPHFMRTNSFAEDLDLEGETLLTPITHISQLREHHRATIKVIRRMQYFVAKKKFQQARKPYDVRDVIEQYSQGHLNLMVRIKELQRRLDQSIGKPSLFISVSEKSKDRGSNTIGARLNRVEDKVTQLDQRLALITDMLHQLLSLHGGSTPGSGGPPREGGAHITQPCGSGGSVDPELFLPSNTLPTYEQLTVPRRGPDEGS
T1 sequence (Q8N4C8 whole entry): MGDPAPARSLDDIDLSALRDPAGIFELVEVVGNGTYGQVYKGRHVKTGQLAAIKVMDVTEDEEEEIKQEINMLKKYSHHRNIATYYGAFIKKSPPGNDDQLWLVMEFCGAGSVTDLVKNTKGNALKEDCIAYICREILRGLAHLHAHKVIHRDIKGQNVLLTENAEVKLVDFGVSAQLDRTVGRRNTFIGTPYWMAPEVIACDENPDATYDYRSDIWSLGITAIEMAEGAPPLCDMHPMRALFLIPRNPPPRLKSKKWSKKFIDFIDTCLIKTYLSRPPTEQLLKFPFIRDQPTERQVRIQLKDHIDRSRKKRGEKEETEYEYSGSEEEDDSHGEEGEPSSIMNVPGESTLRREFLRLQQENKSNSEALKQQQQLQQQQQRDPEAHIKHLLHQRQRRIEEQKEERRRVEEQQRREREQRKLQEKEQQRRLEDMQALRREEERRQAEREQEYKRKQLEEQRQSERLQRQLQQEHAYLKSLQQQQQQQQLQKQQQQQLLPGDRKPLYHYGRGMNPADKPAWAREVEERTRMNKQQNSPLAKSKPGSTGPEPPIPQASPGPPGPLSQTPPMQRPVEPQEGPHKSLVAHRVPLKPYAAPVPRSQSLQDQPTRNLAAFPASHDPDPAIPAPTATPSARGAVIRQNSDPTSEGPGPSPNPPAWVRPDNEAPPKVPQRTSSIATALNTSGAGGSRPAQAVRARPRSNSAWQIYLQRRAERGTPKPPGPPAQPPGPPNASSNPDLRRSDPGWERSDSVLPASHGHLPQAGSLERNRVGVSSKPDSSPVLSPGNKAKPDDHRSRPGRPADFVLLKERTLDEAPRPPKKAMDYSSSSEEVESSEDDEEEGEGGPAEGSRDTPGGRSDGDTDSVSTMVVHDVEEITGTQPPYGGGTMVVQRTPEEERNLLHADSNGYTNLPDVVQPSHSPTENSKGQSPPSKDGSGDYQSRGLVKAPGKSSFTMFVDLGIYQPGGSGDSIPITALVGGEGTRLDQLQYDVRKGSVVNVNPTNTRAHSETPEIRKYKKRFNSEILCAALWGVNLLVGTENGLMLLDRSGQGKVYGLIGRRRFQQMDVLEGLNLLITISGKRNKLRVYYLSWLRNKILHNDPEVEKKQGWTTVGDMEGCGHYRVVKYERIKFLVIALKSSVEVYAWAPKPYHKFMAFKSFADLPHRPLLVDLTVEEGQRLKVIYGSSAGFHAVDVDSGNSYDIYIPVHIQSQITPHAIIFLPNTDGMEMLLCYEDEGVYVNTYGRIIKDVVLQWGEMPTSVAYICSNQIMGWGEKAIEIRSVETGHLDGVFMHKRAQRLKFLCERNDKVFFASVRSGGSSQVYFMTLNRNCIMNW
Sodium channel protein type 5 subunit alpha, sequence (Q14524 whole entry): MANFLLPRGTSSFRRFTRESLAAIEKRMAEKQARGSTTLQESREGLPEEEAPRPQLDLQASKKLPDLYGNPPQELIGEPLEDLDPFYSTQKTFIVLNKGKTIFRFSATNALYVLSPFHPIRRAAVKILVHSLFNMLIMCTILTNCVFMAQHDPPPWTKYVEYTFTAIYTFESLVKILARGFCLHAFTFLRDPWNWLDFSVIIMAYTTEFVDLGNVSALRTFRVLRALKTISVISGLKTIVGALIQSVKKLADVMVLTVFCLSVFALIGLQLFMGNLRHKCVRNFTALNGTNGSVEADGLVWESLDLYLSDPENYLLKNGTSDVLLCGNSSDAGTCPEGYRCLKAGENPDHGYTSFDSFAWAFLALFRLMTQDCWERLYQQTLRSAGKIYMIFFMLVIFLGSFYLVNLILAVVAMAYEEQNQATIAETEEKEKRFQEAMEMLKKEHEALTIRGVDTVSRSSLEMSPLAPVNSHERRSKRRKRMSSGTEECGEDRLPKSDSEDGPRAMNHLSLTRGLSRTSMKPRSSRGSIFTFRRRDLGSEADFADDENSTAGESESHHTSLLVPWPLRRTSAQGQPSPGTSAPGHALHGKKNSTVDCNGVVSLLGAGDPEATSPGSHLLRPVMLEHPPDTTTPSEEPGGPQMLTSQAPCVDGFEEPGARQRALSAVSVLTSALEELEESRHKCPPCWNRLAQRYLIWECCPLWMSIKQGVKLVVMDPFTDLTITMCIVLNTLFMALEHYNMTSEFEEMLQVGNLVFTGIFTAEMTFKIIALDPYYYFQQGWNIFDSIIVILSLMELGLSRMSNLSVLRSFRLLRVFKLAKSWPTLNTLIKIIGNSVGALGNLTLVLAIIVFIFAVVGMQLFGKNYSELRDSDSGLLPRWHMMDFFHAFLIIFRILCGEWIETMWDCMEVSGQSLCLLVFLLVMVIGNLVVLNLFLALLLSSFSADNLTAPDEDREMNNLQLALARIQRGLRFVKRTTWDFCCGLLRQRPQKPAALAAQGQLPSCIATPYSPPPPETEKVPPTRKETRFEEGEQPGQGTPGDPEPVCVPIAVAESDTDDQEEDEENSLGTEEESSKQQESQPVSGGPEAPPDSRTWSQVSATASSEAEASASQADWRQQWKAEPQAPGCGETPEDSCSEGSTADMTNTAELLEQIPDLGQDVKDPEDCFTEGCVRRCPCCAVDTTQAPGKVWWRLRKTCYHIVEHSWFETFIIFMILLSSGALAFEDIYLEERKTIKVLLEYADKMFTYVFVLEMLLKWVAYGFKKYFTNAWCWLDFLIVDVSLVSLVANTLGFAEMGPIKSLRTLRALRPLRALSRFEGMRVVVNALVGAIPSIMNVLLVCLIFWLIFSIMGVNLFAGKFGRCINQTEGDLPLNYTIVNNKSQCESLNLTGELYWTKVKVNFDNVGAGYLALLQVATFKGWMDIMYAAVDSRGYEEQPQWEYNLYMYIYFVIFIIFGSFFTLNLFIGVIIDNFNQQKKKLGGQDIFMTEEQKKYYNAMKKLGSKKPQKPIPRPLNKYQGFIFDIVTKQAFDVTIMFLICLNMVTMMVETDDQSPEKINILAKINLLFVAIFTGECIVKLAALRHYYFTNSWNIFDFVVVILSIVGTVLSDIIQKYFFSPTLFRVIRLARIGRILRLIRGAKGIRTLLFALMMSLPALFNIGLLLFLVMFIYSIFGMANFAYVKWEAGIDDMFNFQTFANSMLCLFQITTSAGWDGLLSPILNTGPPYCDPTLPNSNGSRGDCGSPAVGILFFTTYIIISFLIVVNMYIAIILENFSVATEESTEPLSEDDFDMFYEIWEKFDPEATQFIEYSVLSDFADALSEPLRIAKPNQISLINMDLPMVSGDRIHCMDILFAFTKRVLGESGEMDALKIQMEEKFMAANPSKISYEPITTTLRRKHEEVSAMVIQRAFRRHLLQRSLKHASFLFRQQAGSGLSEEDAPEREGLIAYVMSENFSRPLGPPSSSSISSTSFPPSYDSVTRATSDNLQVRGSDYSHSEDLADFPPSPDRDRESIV

Row | SMILES | inhibition at 1 µM [1] | fraction unbound [2] | inhibition at 0.03 µM (hERG (KCNH2)) | inhibition at 10 µM [3] | Cp(f) [4] | IC50 [5] | Cp [6] | IC50 [7] | inhibition (INH) [8]
1 | CNC(=O)C(CCN1CCC(O)(c2ccc(Cl)cc2)CC1)(c1ccccc1)c1ccccc1 | 4% | 0.043 | 5.9% | 23% | 48 to 54 nM | 245 nM | 560 to 630 ng/mL | 483 nM | –
2 | CN(C)C(=O)C(CCN1CCC(O)(c2ccc(Cl)cc2)CC1)(c1ccccc1)c1ccccc1 [LOPERAMIDE] | 17% | 0.03 to 0.05 | – | 65% | 6.3 to 10 nM | – | 76 to 120 ng/mL | 239 nM | 20%
